Data from patent publication US20260069728A1, “MULTI-TARGETING COMPOUND AND USE THEREOF” (Chengdu Shetai Medical Technology Co., Ltd., priority 2023, published 2026).
Like-named read-outs stand apart in the source and are kept apart here.

Tests used:
[1] = tested on: HUTU-80 human duodenal adenocarcinoma cell line; assay: Cell uptake and inhibition assay, HUTU-80; type: cell-based
Protocol: The cell lines involved in the cell experiments in the test examples include: SUM149PT human breast cancer cell line, HUTU-80 human duodenal adenocarcinoma cell line, and U-118 MG human brain astrocytoma/glioblastoma cell line.
HUTU-80: Complete medium was formulated using DMEM high-glucose medium, 10% FBS, and a penicillin-streptomycin solution. The cells were cultured in a constant temperature incubator at 37° C. with 5% CO2. The culture medium was regularly replaced, and the cells were passaged. The culture medium was generally changed every 2 to 3 days. The growth of the tumor cells was observed daily under a microscope, including monitoring cell growth status, checking for adherence, examining cell morphology for any abnormalities, checking for contamination, and observing medium color for any abnormalities. Cells were passaged when they reached 80-90% confluence.
When cell confluence in the culture flask reached 80%, the cells were digested and centrifuged, and the supernatant was removed. An appropriate amount of medium was added to dilute so that each well contained 500 μL of medium for plating. After thorough mixing by pipetting, the cell suspension was seeded into a 24-well plate at a density of 5×10^5 cells per well. The plate was then placed into the incubator for continued growth. The cells were ready for cellular experiments when they reached 80% confluence.
(1) The cell uptake assay established four incubation time points: 15, 30, 60, and 120 minutes, respectively. For each time point, four groups were set up: non-inhibition group, a first single inhibition group (FAP single inhibition), a second single inhibition group (CXCR4/GRPR/αvβ3 single inhibition), and a dual inhibition group (FAP inhibitor+CXCR4/GRPR/αvβ3 inhibitor). Each group at each time point was set up with 3 triplicate wells.
(§1) (2) Cells were plated into a 24-well plate according to the cell plating procedure described above.
(3) The original culture medium was removed from the 24-well plate. Then, 400 μL of 100 mg/mL skimmed milk solution was added to each well for blocking for one hour. After removing the skimmed milk solution, each of the wells was washed three times by adding 400 μL of PBS solution. Subsequently, 146 μL of FBS-free medium was added to each well. […]
(6) The radioactivity in the cells was measured using a γ counter. […]

[2] = tested on: HUTU-80 human duodenal adenocarcinoma cell line; assay: Cell saturation binding assay, HUTU-80; settings: 68Ga-labeled compound
Protocol: (1) For the cell saturation binding assay, a total of 8 radiolabeled ligand concentrations were set at intervals within the anticipated range. For each concentration, there were 3 groups: the non-inhibition group, the first single inhibition group (FAP single inhibition group), and the second single inhibition group (CXCR4/GRPR/αvβ3 single inhibition group). For each concentration and each group, 3 replicate wells were established.
as §1
(3) The original culture medium was removed from the 24-well plate. Then, 400 μL of 100 mg/mL skimmed milk solution was added to each well for blocking for one hour. After removing the skimmed milk solution, each of wells was washed three times by adding 400 μL of PBS solution. Subsequently, 146 μL of FBS-free medium was added to each well. Next, the non-inhibition group received 4 μL of cold PBS per well, while the first single inhibition group and the second single inhibition group received the following additions per well according to Table 4: 2 μL of non-radiolabeled first single inhibitor solution and 2 μL of cold PBS; 2 μL of non-radiolabeled second single inhibitor solution and 2 μL of cold PBS. The plate was then incubated at room temperature for one hour.
(4) The ligands were radiolabeled with 68Ga using the labeling method described previously. Different volumes of FBS-free medium were added to formulate the radioligand systems at corresponding concentrations. Then, 50 μL of the corresponding concentration of the radioligand system was added to each well.
(5) The supernatant was removed, and the wells were washed three times with 400 μL of PBS. 200 μL of IM NaOH solution was added to each well for cell lysis. […] Each well was washed once with 400 μL of PBS solution, and the washings were sequentially added to the corresponding radioimmunoassay tubes.
(6) Radioactivity in the cells was measured using a γ counter. The equilibrium dissociation constant (KD) was obtained by fitting the curve using nonlinear regression analysis in GraphPad Prism software. KD is the drug concentration that causes half of the maximum effect (50% receptor occupancy).

[3] = Isoelectric point (PI) measurement; type: physicochemical; settings: unlabeled compound

## CC(C)CC(CC(C)C)NC(=O)[C@H](Cc1cnc[nH]1)NC(=O)CNC(=O)C(NC(=O)[C@H](C)NC(=O)[C@H](Cc1c[nH]c2ccccc12)NC(=O)[C@H](CCC(N)=O)NC(=O)[C@@H](Cc1ccccc1)NC(=O)COCC(=O)Nc1ccc(CNC(=O)COCCOCCNC(=O)COCCOCCNC(=O)[C@H](CCCCNC(=O)CN2CCN(CC(=O)O)CCN(CC(=O)O)CCN(CC(=O)O)CC2)NC(=O)CCC(=O)N2CCN(CCCOc3ccc4nccc(C(=O)NCC(=O)N5CC(F)(F)C[C@H]5C#N)c4c3)CC2)cc1)C(C)C (stereo partly drawn) [SDYD03]
[1]; 15-120 minutes
  cell uptake over incubation time (in words): increased slowly and reached a plateau from 15 to 120 minutes
[1]; FAPI-04 and BBN as inhibitors
  cell uptake, comparison of non-inhibition, FAP single, GRPR single and dual inhibition groups (in words): cell uptake in the non-inhibition group was consistently higher than that in the other three groups
  inhibition rate, comparison of inhibition groups (in words): inhibition rate of the dual inhibition group was higher than that of the FAP single inhibition group and the GRPR single inhibition group
[1]; conclusion from inhibition groups
  specific binding to FAP and GRPR (in words): can specifically bind to both FAP and GRPR
[2]
  KD values / binding affinity to the receptors (in words): relatively low KD values
[2]; BBN solution (GRPR inhibitor), read-out: KD value, Second single inhibition group (CXCR4/GRPR/αvβ3 single inhibition)
  Kd: 1.76 ± 0.224 nM
[2]; FAPI-04 solution, read-out: KD value, First single inhibition group (FAP single inhibition)
  Kd: 0.884 ± 0.152 nM
[2]; read-out: KD value, Non-inhibition group
  Kd: 1.23 ± 0.331 nM
[3]
  PI range of series of peaks: 5.992-7.095
